Results as given in article PMC4603303, “Activity of Novel Synthetic Peptides against Candida albicans” (Scientific Reports, 2015).
Read-outs that look alike come from different tables or passages of the source. Ends that are not written are not given here.

Assays:
Candida strains = experiment: MIC, broth microdilution, range stated over several Candida strains; assay type: cell-based, Candida spp.
Method: (§1) C. albicans strains SC5314 and ATCC 90028, C. krusei ATCC 6258 and C. parapsilosis ATCC 22019 were used in the study. The strains were stored at −80°C in nutrient broth supplemented with 2.0% glycerol stock. Prior to experimentation, each strain was streaked for single colonies on Sabouraud Dextrose (SDA) agar plates and incubated overnight at 37°C.
(§2) Antifungal activity of the designed peptides was determined according to a standardized broth microdilution method (Clinical and Laboratory Standards Institute (CLSI) document M27-A2). Briefly, the yeast colonies from 24- hour-old cultures of Candida species were picked and resuspended in 5 mL of sterile 0.145 mol/L saline and adjusted to cell density of 1 × 10^6 to 5 × 10^6 cells/ml. The yeast stock suspension was then diluted to obtain a starting inoculum of 5.0 × 10^2 to 2.5 × 10^3 cells/ml. […] The drugs were dissolved in DMSO and prepared to a stock concentration of 25 mg/L and 50 mg/L, respectively. […] 100 μL of standardized yeast suspension was then added to each well. Plates were incubated for 48 hours at 37°C. The minimum inhibitory concentration (MIC) was defined as the lowest concentration that inhibited 90% growth of Candida species. The MICs were determined three times and each time in duplicate.

C. albicans SC5314 = experiment: Time killing assay; assay type: cell-based, Candida albicans
Method: A fungal suspension was adjusted to a 0.5 McFarland turbidity standard with cell density of 1 × 10^6 to 5 × 10^6 cells/ml. 100 μL of adjusted yeast suspension was exposed to 900 μL of RPMI medium containing peptide, yielding a starting inoculum of approximately 10^5 cells/ml. The solutions were incubated at 37°C with agitation. At the predetermined time interval of 0, 1, 2, 4 and 6 hours, 10 μL or 30 μL of the samples were removed, serially diluted with phosphate-buffered saline (PBS) and plated on SDA plates to allow colony counts after 24 hours of incubation. Controls for yeast growth and antifungal agents were also performed. The lower limit of accurate and reproducible quantitation was 100 CFU/ml. Results were obtained from three independent experiments.

human erythrocytes = experiment: Haemolytic assay; assay type: cell-based
Method: Freshly collected human blood with heparin was centrifuged to remove the buffy coat. The erythrocytes were washed three times with PBS, centrifuged for 10 min at 2000 rpm at 10°C, and resuspended in PBS to 4% (vol/vol). […] PBS and 0.1% Triton X-100 were used as agents to induce 0 and 100% haemolysis, respectively. Plates were incubated for 1 hour at 37°C and centrifuged at 2000 rpm for 10 min. The supernatant (100 μL) was transferred to a 96-well flat-bottomed polystyrene plate, and the release of haemoglobin was monitored by measuring the absorbance at 560 nm using a microplate reader. Results were repeated three times and each time in duplicate. The percentage of haemolysis was calculated using the following formula: [drawing 2] where Ap and A100 represent the absorbance of erythrocytes treated with peptide and 0.1% Triton X-100. A0 is the absorbance of erythrocytes without treatment.

[1] = test system: Candida albicans ATCC 90028; experiment: MIC, broth microdilution (CLSI M27-A2); assay type: cell-based
Method: as §1, §2

Candida albicans SC 5314 = experiment: MIC, broth microdilution (CLSI M27-A2); assay type: cell-based
Method: as §1, §2

Candida krusei ATCC 6258 = experiment: MIC, broth microdilution (CLSI M27-A2); assay type: cell-based
Method: as §1, §2

[2] = test system: Candida parapsilosis ATCC 22019; experiment: MIC, broth microdilution (CLSI M27-A2); assay type: cell-based
Method: as §1, §2

VK2/E6E7 cell line = experiment: cells
Method: (§3) The human normal vaginal epithelial cell line VK2/E6E7 (ATCC® CRL-2616™) and human normal esophagus epithelial cell line Het-1A (ATCC® CRL-2692™) were used for cytotoxicity testing. VK2/E6E7 cell line was grown in Keratinocyte-Serum Free medium (GIBCO-BRL 17005-042) supplemented with 0.1 ng/ml human recombinant EGF, 0.05 mg/ml bovine pituitary extract, and 44.1 mg/L calcium chloride. […] Cell viability was measured by using CellTiter 96® Aqueous Non-Radioactive Cell Proliferation Assay (Promega, USA) and the colourimetric changes were determined at 490 nm using a microplate reader. […] Results were recorded by averaging three repeated experiments and each experiment was performed in duplicate.

Het-1A cell line = experiment: cells
Method: as §3

Substance | MIC values, range (Candida strains; 48 h) [µg/mL] | % killing (C. albicans SC5314; SC5314, 6 h, 2) [%] | mean log decrease in viable cells (C. albicans SC5314; SC5314, 6 h, 2) [log CFU/mL] | Haemolytic activity HC10 (human erythrocytes; red cells of human, 1 h) [mg/L] | Haemolytic activity HC50 (human erythrocytes; red cells of human, 1 h) [mg/L] | Minimum Inhibitory Concentration (MIC) ([1]; ATCC 90028, 48 h) [µg/mL] | Minimum Inhibitory Concentration (MIC) (Candida albicans SC 5314; SC 5314, 48 h) [µg/mL] | Minimum Inhibitory Concentration (MIC) (Candida krusei ATCC 6258; ATCC 6258, 48 h) [µg/mL] | Minimum Inhibitory Concentration (MIC) ([2]; ATCC 22019, 48 h) [µg/mL] | IC50 (VK2/E6E7 cell line; 24 h) [µg/mL] | IC50 (VK2/E6E7 cell line; 48 h) [µg/mL] | IC50 (VK2/E6E7 cell line; 72 h) [µg/mL] | IC50 (Het-1A cell line; 24 h) [µg/mL] | IC50 (Het-1A cell line; 48 h) [µg/mL] | IC50 (Het-1A cell line; 72 h) [µg/mL] | other results
GIWKKWIKKWLKVLKNLF-NH2 [KU3] | 8 to 16 | 99.94 | 3.28 ± 0.30 | 5.65 ± 0.85 | 55.20 ± 11.90 | 16 | 8 | 16 | 8 | 4.43 ± 0.39 | 5.32 ± 0.84 | 7.83 ± 1.41 | 4.33 ± 0.52 | 4.62 ± 0.65 | 6.36 ± 1.34 | –
GVIKAAKKVVKVLKKLF-NH2 [Upn-lys6] | – | – | – | >256 | >256 | 64 | 32 | 32 | 16 | 9.07 ± 1.92 | 10.04 ± 3.27 | 9.87 ± 1.46 | 7.49 ± 1.77 | 7.92 ± 1.22 | 11.20 ± 0.86 | MIC values, range (Candida strains; range against C. albicans and C. krusei): 32 to 64 µg/mL; % killing (C. albicans SC5314; SC5314, 4 h, 2): > 99.99%; mean log decrease in viable cells (C. albicans SC5314; SC5314, 4 h, 2): 5.56 ± 0.07 log CFU/mL
GIWKKWIKKWLKKLLKKLWKKG-NH2 [KABT-AMP, reference compound] | – | – | – | – | – | – | – | – | – | – | – | – | – | – | – | MIC values, range (Candida strains; range against four Candida strains (C. albicans and non-albicans species)): 32 to 64 µg/mL; % killing (C. albicans SC5314; 2× MIC, within 4 hours): > 99.99%; mean log decrease in viable cells (C. albicans SC5314; 2× MIC, within 4 hours, RPMI, 37°C, mean ± SD of three experiments): 5.4 ± 0.09 log CFU/mL; Haemolytic activity HC10 (human erythrocytes; concentration causing 10% haemolysis, 1 hour, 37°C, erythrocyte suspension 4% in PBS, three times in duplicate): 4.67 ± 2.09 mg/L; Haemolytic activity HC50 (human erythrocytes; concentration causing 50% haemolysis, 1 hour, 37°C, erythrocyte suspension 4% in PBS, three times in duplicate): 81.23 ± 8.92 mg/L; Minimum Inhibitory Concentration (MIC) ([1]; C. albicans ATCC 90028, RPMI 1640-MOPS, 48 h, 37°C, lowest concentration inhibiting 90% growth, three times in duplicate): 64 µg/mL; Minimum Inhibitory Concentration (MIC) (Candida albicans SC 5314; C. albicans SC 5314, RPMI 1640-MOPS, 48 h, 37°C, lowest concentration inhibiting 90% growth, three times in duplicate): 32 µg/mL; Minimum Inhibitory Concentration (MIC) (Candida krusei ATCC 6258; C. krusei ATCC 6258, RPMI 1640-MOPS, 48 h, 37°C, lowest concentration inhibiting 90% growth, three times in duplicate): 64 µg/mL; Minimum Inhibitory Concentration (MIC) ([2]; C. parapsilosis ATCC 22019, RPMI 1640-MOPS, 48 h, 37°C, lowest concentration inhibiting 90% growth, three times in duplicate): 64 µg/mL
GIWKKWIKKWLKKLKNLF-NH2 [KU4] | 16 to 64 | > 99.99 | 5.55 ± 0.08 | 49.38 ± 5.14 | – | 64 | 32 | 16 | 32 | 8.75 ± 1.04 | 10.55 ± 2.33 | 19.46 ± 4.29 | 9.75 ± 1.34 | 10.47 ± 0.50 | 14.53 ± 1.58 | Haemolytic activity HC50 (human erythrocytes): > 256 mg/L
GVIDAAKKVVNVLKNLF-NH2 [Uperin 3.6, reference compound] | 64 to 128 | – | – | – | – | 128 | 64 | 64 | 128 | 17.14 ± 4.32 | 23.59 ± 1.18 | 24.69 ± 6.02 | 17.60 ± 2.52 | 17.94 ± 1.96 | 23.23 ± 2.98 | % killing (C. albicans SC5314; SC5314, 4 h, 2): > 99.99%; mean log decrease in viable cells (C. albicans SC5314; SC5314, 4 h, 2): 5.54 ± 0.13 log CFU/mL; Haemolytic activity HC10 (human erythrocytes): > 256 mg/L; Haemolytic activity HC50 (human erythrocytes): > 256 mg/L
GIWKKWIKKWLNVLKNLF-NH2 [KU2] | 8 to 16 | 99.73 | 2.77 ± 0.54 | 7.33 ± 0.73 | 57.71 ± 9.80 | 16 | 8 | 16 | 8 | 5.42 ± 0.49 | 7.01 ± 0.84 | 11.38 ± 1.75 | 5.51 ± 0.44 | 6.03 ± 0.43 | 8.89 ± 1.40 | –
GVIKAAKKVVNVLKNLF-NH2 [Upn-lys4] | – | 99.97 | 4.12 ± 1.36 | >256 | >256 | 128 | 64 | 64 | 64 | 15.45 ± 2.64 | 16.55 ± 0.55 | 19.98 ± 1.84 | 14.12 ± 4.35 | 14.71 ± 4.44 | 23.64 ± 2.82 | –
